In patent US20090131308A1, “Splice Variants of ErbB Ligands, Compositions and Uses Thereof” (AGOS BIOTECH LTD., priority 2003, published 2009):
Entries after “also recorded” stand apart in the source; their conditions may differ. No end group written: not given here.

Experiments:
[1] = system: BaF/3 cells transfected with the EGFR (BaF/3-EGFR); test: Activatory ligand stimulated mitogenesis assay; format: cell-based; details: for potentiation of mitogenesis of BaF/3-EGFR cells: titrating concentrations of variant ligand, preliminary results, data not shown
Method: BaF/3 cells transfected with the EGFR (BaF/3-EGFR; Walker et al, Growth Factors 16: 53-67, 1998) are washed three times to remove residual IL-3 and resuspended in RPMI 1640+10% FCS. Cells are then seeded into 96 well plates using a Biomek 2000 (Beckman) at 2×10^4 cells per 200 microlitres and incubated for 4 h at 37 C in 10% CO2. To determine the efficacy of this system with a positive control, cells are first grown with titrating concentrations of activatory ligand EGF alone, to determine the minimum amount of ligand required to achieve maximal or sub-maximal receptor-mediated mitogenesis for these cells. […] Titrating concentrations of ErbB variant ligands are added to the cells to test their mitogenic potential. In a similar manner, BaF/3 or different cells expressing a range of ErbB receptors, rendering them mitogenically responsive to ErbB ligand stimulation, are used to test these and other variant ligands for activatory ligand stimulated mitogenesis (exemplified in Harari et. al., 1999).

[2] = target: T1, soluble ErbB2 (amino acids 1-509) (Homo sapiens, UniProt P04626); test: BIAcore receptor binding assay, immobilized soluble ErbB2; details: peptide up to 10 uM; BIAcore 3000, CM-5 chip; data not shown
T1 construct: soluble ErbB2 (amino acids 1-509)
Method: (§1) Biosensor analyses were performed using a BIAcore™ 3000. A CM-5 (research grade) sensor chip was immobilized with soluble EGFR (amino acids 1-501), soluble EGFR (amino acids 1-621) and soluble ErbB2 (amino acids 1-509) on flowcells 2, 3 and 4, respectively. Immobilizations were performed using amine coupling chemistry in 10 mM Sodium Acetate at pH 4.2. Varying concentrations (1.25 μM, 2.5 μM, 5 μM and 10 μM) of peptides were injected (30 μl) over the sensor surfaces in HBS running buffer (10 mM HEPES, 3.4 mM EDTA, 0.15M NaCl, 0.005% Tween 20, pH 7.4) at a flow rate of 5 μl/min. The surfaces were then regenerated by injecting 10 μl of 10 mM NaOH at a flow rate of 20 μl/min. The resulting sensor curves were subtracted against the blank channel (Flowcell 1) to yield the specific response.

Betacellulin = test: BIAcore ligand-ligand interaction, immobilized Betacellulin; format: binding, human or bovine; details: peptide 0.3-10 μM (in some cases 50 μM); BIAcore 3000, blank channel subtracted; FIG. 6
Method: Biosensor analyses were performed using a BIAcore™ 3000. A CM-5 (research grade) sensor chip was immobilized with recombinant human or bovine EGF, TGF alpha and Betacellulin on flowcells 2, 3 and 4, respectively. Immobilizations were performed using amine coupling chemistry in 10 mM Sodium Acetate at pH 4.2. Varying concentrations (0.3 μM, 0.6 μM, 1.25 μM, 2.5 μM, 5 μM, 10 μM [and in some cases 50 μM]) of hNRG2(1-32), mEGF(1-32) & hEGF(1-32) were injected (30 μl) over the sensor surfaces in HBS running buffer (10 mM HEPES, 3.4 mM EDTA, 0.15M NaCl, 0.005% Tween 20, pH 7.4) at a flow rate of 5 μl/min. The surfaces were then regenerated by injecting 10 μl of 10 mM NaOH at a flow rate of 20 μl/min. The resulting sensor curves were subtracted against the blank channel (Flowcell 1) to yield the specific response.

[3] = system: soluble ErbB1 (soluble EGFR amino acids 1-501 and 1-621); test: BIAcore receptor binding assay, immobilized soluble EGFR; details: peptide up to 10 uM; BIAcore 3000, CM-5 chip; data not shown
Method: as §1

binding to immobilized soluble ErbB2 [2]	binding to immobilized soluble ErbB1 [3]	Substance	mitogenic response of BaF/3-EGFR cells ([1]; positive control at a concentration of approximately 200 μM)	binding to immobilized Betacellulin (Betacellulin)	potentiation of mitogenesis of BaF/3-EGFR cells [1]
		EGF: activatory ligand EGF purified from mouse salivary glands, positive control (NSYPGCPSSYDGYCLNGGVCMHIESLDSYTCNCVIGYSGDRCQTRDLRWWELR; Epidermal growth factor; UniProt P01132 977-1029, looked up) [reference compound]	sub-maximal to maximal mitogenic response		
failed to demonstrate measurable binding	failed to demonstrate measurable binding	GHARKCNETAKSYCVNGGVCYYIEGINQLSCK-OH (also: air-oxidised refolding, disulfide pairing not given here) [hNRG2(1-32)]		weak binding; also recorded: low affinity interaction	do not potentiate mitogenesis
		NSDSECPLSHDGYCLHDGVCMYIEALDKYACK-OH (not fully specified; C-terminal free acid) [hEGF(1-32)]		no binding	
failed to demonstrate measurable binding	failed to demonstrate measurable binding	NSYPGCPSSYDGYCLNGGVCMHIESLDSYTCK-OH (C-terminal free acid) [mEGF(1-32)]		weak binding; also recorded: low affinity interaction	do not potentiate mitogenesis
